Several values for one entry are separate records, joined by “and”; a condition that tells them apart may be missing. Equal entries are not always repeated.
Tested on: Arabidopsis wild-type (WT) seedlings
Assay: Stomatal development bioassay, seedlings in liquid culture
Type: in vivo
Settings: for effect on stomatal development (in words): WT seedlings; for Number of stomata per 1 mm2 of cotyledon abaxial epidermis: single seedlings n=8 (Fig. 2c); for reduction of total number of stomata and meristemoids / decrease of the number of stomata from mock / increase of the number of meristemoids from mock: WT (Fig. 1e); for meristemoid density, mean / stomata density, mean / total (stomata+meristemoid) density, mean: mean of n=8 (Fig. 1e)
Procedure: Arabidopsis accession Columbia (Col-0) was used as wild-type. […] Their genotype and transcript reduction were confirmed. The presence of transgenes/mutant alleles were confirmed by genotyping. For liquid culture with Stomidazolone (AYSJ929, compound 3), the analogs (AYSJ1059 (compound 5) and AYSJ1061 (compound 6)), degraded compound lzx103 (compound 4), and SIM3* (compound 7), all compounds were dissolved in dimethyl sulfoxide (DMSO, Molecular biology grade, Fujifilm Wako, Japan 046-21981), Col-0 seeds were sown in 96-well plates (TL5003; True Line) containing 95 μL of 1/2 MS media containing 0.5% sucrose with rotary shaking at 140 rpm under continuous light at 22 °C. Five μL of compounds were dissolved in DMSO at 10 mM and diluted with liquid 1/2 MS media to 1 mM and added on 1-day-old seedlings (final concentration, 50 μM). Seedlings were incubated for 8 days, and at day 9 seedling abaxial cotyledons were observed through confocal microscopy. For liquid culture of scrm-D_S343 and scrm-D_S423, 1/2 MS liquid media without sucrose was used. For the solid culture, 0, 20, 50 or 100 μM Stomidazolone were solidified with low-melting agarose (5805S, PrimeGelTM Agarose LMT 1-20 K, TAKARA Bio). Briefly, 1/2 MS salt, 0.5% sucrose, and 0.8% low melting agarose were mixed in water and autoclaved. After cooling the medium at around 30 °C, Stomidazolone (500x, dissolved in DMSO) was added and poured into 90 mm petri dishes (Asnol Petri Dish JP φ90 x 15 mm, 3-1491-01, AS ONE). Col-0 seeds were sown on Stomidazolone-containing 1/2 MS agarose media and grown under continuous light for 9 days.
For confocal microscopy, cell peripheries of seedlings were visualized with propidium iodide (Sigma, P4170). Images were acquired using LSM800 or LSM700 (Zeiss) using a 20x lens. The GFP, YFP reporter and PI signals were detected with excitation at 488 nm and an emission filter of 410 to 546 nm, at 488 nm and an emission filter of 410 to 546 nm, and with excitation at 561 nm and 582–617 nm emission range, respectively. Raw data were collected with 1024 × 1024 pixel images. For qualitative image presentation, Adobe Photoshop CC was used to trim and uniformly adjust the contrast/brightness.
For quantitative analysis of the abaxial leaf epidermis, confocal images were taken on the days after germination as indicated in the Figure legends. Preparation of images was done as described previously[32],[70]. For counting epidermal cell types, stomatal density, stomatal precursor cells (meristemoids), total stomata-lineage cells (stomata and meristemoids) were calculated by counting cell types in an area of 0.4 mm^2 (0.63 mm × 0.63 mm) and plotted as per mm^2. A series of Z-stack confocal images was obtained to obtain images covering the epidermis and capturing GFP/YFP signal from the reporter lines. The area and the number of epidermal cells were quantified by using FIJI-ImageJ. Statistical analyses were performed using R ver. 4.0.2. Sample sizes (n) are indicated and defined in each legend. For the multiple sample comparison, 1-way ANOVA was performed followed by a post hoc Tukey HSD test. For the two-sample comparison, Student’s T-test was performed. Graphs were generated using R ggplot2 package. For all boxplots, each box represents IQR (interquartile range), in which top, middle line, and bottom indicating 75, 50, and 25 percentiles, respectively, and the bar representing maximum to minimal values. Each magenta dot represents jittered individual data point. The datapoints that go beyond the bar are outliers, which are indicated as black dots. If the data point is greater than Q3 + 1.5*IQR (above the third quartile is greater than 1.5 times of the interquartile range) or less than Q1 − 1.5*IQR, that data point is classified as outlier. The color of Boxplot graph was based on ColorBrewer.org. The value of n, the number of each experiment or samples, the means of error bars, and how statistical significance was defined are indicated in a relevant figure legend. […]

[1] = 50 μM, WT, single seedlings n=8 (Fig. 4b)
[2] = 50 μM, cotyledon abaxial epidermis, individual seedlings

Cc1ccc(C2(NS(=O)(=O)c3ccccc3)N=C(c3ccccc3)C(=O)N2S(=O)(=O)c2ccccc2)cc1 (stereo not shown) [AYSJ1059]
effect on stomatal development (in words) (50 μM, liquid culture): did not affect the number of stomata
Number of stomata per 1 mm2 of cotyledon abaxial epidermis (50 μM, WT, 9 dag): 202 per 1 mm2 and 209 per 1 mm2 and 187 per 1 mm2 and 245 per 1 mm2 and 192 per 1 mm2 and 182 per 1 mm2 and 199 per 1 mm2 and 175 per 1 mm2

O=C1C(c2ccccc2)=NC(NS(=O)(=O)c2ccccc2)(c2ccc(Br)cc2)N1S(=O)(=O)c1ccccc1 (stereo not shown) [AYSJ1061]
effect on stomatal development (in words) (50 μM, liquid culture): did not affect the number of stomata
Number of stomata per 1 mm2 of cotyledon abaxial epidermis (50 μM, WT, 9 dag): 160 per 1 mm2 and 190 per 1 mm2 and 148 per 1 mm2 and 192 per 1 mm2 and 173 per 1 mm2 and 255 per 1 mm2 and 236 per 1 mm2

O=C1C(c2ccccc2)=NC(NS(=O)(=O)c2ccccc2)(c2ccccc2)N1S(=O)(=O)c1ccccc1 (stereo not shown) [Stomidazolone]
reduction of total number of stomata and meristemoids (20 μM): 14.46%
Total (stomata+meristemoid) density (20 uM, WT cotyledon abaxial epidermis, 9 dag, single seedlings n=8 (Fig. 1e)): 156 per mm^2 and 173 per mm^2 and 163 per mm^2 and 168 per mm^2 and 107 per mm^2 and 154 per mm^2 and 144 per mm^2 and 124 per mm^2
Stomata density (20 uM, WT, 9 dag, single seedlings n=8 (Fig. 1e)): 115 per mm^2 and 141 per mm^2 and 144 per mm^2 and 132 per mm^2 and 88 per mm^2 and 127 per mm^2
meristemoid density, mean (20 uM, WT, mock mean 7.875): 24.875 per mm^2
stomata density, mean (20 uM, WT, mock mean 165.75): 124.25 per mm^2
total (stomata+meristemoid) density, mean (20 uM, WT, mock mean 173.75): 148.625 per mm^2
decrease of the number of stomata from mock (50 μM): 59.50%
increase of the number of meristemoids from mock (50 μM): 801.5%
reduction of total number of stomata and meristemoids (50 μM): 25.03%
Total (stomata+meristemoid) density (50 uM, WT, 9 dag, single seedlings n=8 (Fig. 1e)): 166 per mm^2 and 149 per mm^2 and 124 per mm^2 and 132 per mm^2 and 146 per mm^2 and 100 per mm^2 and 115 per mm^2 and 110 per mm^2
Number of stomata per 1 mm2 of cotyledon abaxial epidermis (50 μM, WT, 9 dag): 70 per 1 mm2 and 109 per 1 mm2 and 90 per 1 mm2 and 124 per 1 mm2 and 129 per 1 mm2 and 112 per 1 mm2 and 117 per 1 mm2
meristemoid density, mean (50 uM, WT): 63.125 per mm^2
stomata density, mean (50 uM, WT): 67.125 per mm^2
total (stomata+meristemoid) density, mean (50 uM, WT): 130.25 per mm^2
Stomata density [1]: 90 per mm2 and 117 per mm2 and 102 per mm2 and 75 per mm2 and 107 per mm2 and 148 per mm2
Total (stomata+meristemoid) density [1]: 104 per mm2 and 136 per mm2 and 119 per mm2 and 102 per mm2 and 87 per mm2 and 124 per mm2 and 168 per mm2 and 158 per mm2
Meristemoid density (50 μM, WT, single seedlings n=8 (Fig. 4b, replotted 4k)): 15 per mm2 and 19 per mm2 and 17 per mm2 and 12 per mm2 and 10 per mm2
Meristemoid density [2]: 0 per mm2 and 2 per mm2 and 10 per mm2 and 5 per mm2 and 7 per mm2
Stomata density [2]: 214 per mm2 and 241 per mm2 and 216 per mm2 and 228 per mm2 and 194 per mm2 and 250 per mm2 and 182 per mm2 and 207 per mm2
Total cell density [2]: 214 per mm2 and 243 per mm2 and 226 per mm2 and 233 per mm2 and 199 per mm2 and 253 per mm2 and 190 per mm2 and 209 per mm2
decrease of the number of stomata from mock (100 μM): 69.53%
increase of the number of meristemoids from mock (100 μM): 647.6%
Total (stomata+meristemoid) density (100 uM, WT, 9 dag, single seedlings n=8 (Fig. 1e)): 120 per mm^2 and 85 per mm^2 and 71 per mm^2 and 112 per mm^2 and 95 per mm^2 and 122 per mm^2
meristemoid density, mean (100 uM, WT): 51 per mm^2
stomata density, mean (100 uM, WT): 50.5 per mm^2
total (stomata+meristemoid) density, mean (100 uM, WT): 101.25 per mm^2
effect on overall seedling growth (liquid culture, even at 100 μM (Fig. 1f)): does not affect

Reference: publication PMC11500415, “Chemical inhibition of stomatal differentiation by perturbation of the master-regulatory bHLH heterodimer via an ACT-Like domain” (Nature Communications, 2024)
